According to ChEMBL document CHEMBL1132900, “Methaqualone derivatives are potent noncompetitive AMPA receptor antagonists” (Bioorg Med Chem Lett, 2000):

These compounds were tested against Glutamate receptor ionotropic, AMPA (Rattus norvegicus, UniProt P19490+P19491+P19492+P19493).
Description: Antagonist potency against functional AMPA receptor by kainate-induced Ca+2 in rat cerebellar granule neurons in primary culture
`Cc1ccc(C#N)c(/C(O)=C/c2nc3ccc(F)cc3c(=O)n2-c2ccccc2Cl)n1` gave an IC50 of 9.3 nM.
`N#Cc1cccnc1/C(O)=C/c1nc2ccc(F)cc2c(=O)n1-c1ccccc1Cl` showed an IC50 of 14 nM.
Work on `N#Cc1ccccc1/C(O)=C/c1nc2ccc(F)cc2c(=O)n1-c1ccccc1Cl` yielded an IC50 of 130 nM.
For `O=c1c2ccccc2nc(/C=C(\O)c2ccccn2)n1-c1ccccc1Cl`, the IC50 was 490 nM.
`O=c1c2cc(F)ccc2nc(/C=C(\O)c2ccccc2F)n1-c1ccccc1Cl` was tested, and the IC50 was > 30000 nM.
In the case of `O=c1c2ccccc2nc(/C=C(\O)c2ccncc2)n1-c1ccccc1Cl`, the IC50 is reported as 370 nM.
In the case of `Cc1cccc(/C(O)=C/c2nc3ccc(F)cc3c(=O)n2-c2ccccc2Cl)n1`, the IC50 is reported as 5500 nM.
Work on `O=c1c2cc(F)ccc2nc(/C=C(\O)c2ccccn2)n1-c1ccccc1Cl` yielded an IC50 of 250 nM.
`CC1=NN=C(c2ccc(N)cc2)c2cc3c(cc2C1)OCO3` [GYKI-52466] showed an IC50 of 22000 nM.
`Cc1nc2ccccc2c(=O)n1-c1ccccc1Cl` [MECLOQUALONE] was tested, and the IC50 was > 10000 nM.
`Cc1ccccc1-n1c(C)nc2ccccc2c1=O` [METHAQUALONE] was tested, and the IC50 was > 10000 nM.
